Source: patent US6762036B2, “Cellular physiology workstations for automated data acquisition and perfusion control” (Trustees of Boston University, priority 1995, dated 2004)

Columns and labels:
Format in all cases: cell-based
[1] = system: metabotropic glutamate receptors; experiment: Inhibition of kainate responses by stimulation of metabotropic glutamate receptors in oocytes injected with rat brain poly A+ mRNA; conditions: about 500 μM tACPD, about 100 μM kainate, repetitive applications, FIG. 14
Description: Poly A^+ mRNA are extracted from brain tissue and neuronal cell culture using a magnetic separation protocol based on the Dynabeads Oligo (dT)25 kit (Dynal, Olso, Norway). Briefly, the protocol utilized magnetic beads that have an attached poly-T moiety which can bind poly A^+ mRNA for separation. Tissue is homogenized, cells are disrupted, and the lysate is added to an aliquot of Dynabeads. Magnetic separation efficiently yields mRNA that is suitable for direct injection into oocytes. Batches of about 20 to about 30 select oocytes are injected with about 50 to about 100 ng of neuronal poly A^+ mRNA. Alternatively, oocytes may be injected with about […] of RNA prepared from in vitro transcription of cDNA clones. In either case, injection may be performed using a Drummond electronic microinjector. Oocytes are then maintained at about 18° C. to about 19° C. for about 2 to about 4 days to allow protein expression prior to electrophysiological recordings. After incubation, electrophysiological analysis of expressed receptors and ion channels may be performed using a system according to the present invention.

[2] = system: kainate responses in oocytes injected with rat brain poly A+ mRNA; experiment: Effect of pregnenolone sulfate on kainate dose-response curve in oocytes injected with rat brain poly A+ mRNA; conditions: with and without pregnenolone sulfate, Vh about −100 mV, FIG. 9
Description: Poly A^+ mRNA are extracted from brain tissue and neuronal cell culture using a magnetic separation protocol based on the Dynabeads Oligo (dT)25 kit (Dynal, Olso, Norway). Briefly, the protocol utilized magnetic beads that have an attached poly-T moiety which can bind poly A^+ mRNA for separation. Tissue is homogenized, cells are disrupted, and the lysate is added to an aliquot of Dynabeads. Magnetic separation efficiently yields mRNA that is suitable for direct injection into oocytes. Batches of about 20 to about 30 select oocytes are injected with about 50 to about 100 ng of neuronal poly A^+ mRNA. Alternatively, oocytes may be injected with about 30 μl to about 80 μl of RNA prepared from in vitro transcription of cDNA clones. In either case, injection may be performed using a Drummond electronic microinjector. Oocytes are then maintained at about 18° C. to about 19° C. for about 2 to about 4 days to allow protein expression prior to electrophysiological recordings. After incubation, electrophysiological analysis of expressed receptors and ion channels may be performed using a system according to the present invention.
About 3 days to about 5 days after RNA injection, electrophysiological recordings were carried out using an Axoclamp-2A voltage clamp amplifier (Axon Instruments, Inc.). […]

[3] = target: T1, recombinant GluR6 kainate receptors (Homo sapiens, UniProt Q13002); experiment: Effects of steroids on recombinant GluR6 kainate receptors in oocytes; conditions: recombinant GluR6, Vh about −100 mV, FIG. 11
T1 construct: expressed in transfected cells; host or cells: Xenopus laevis oocytes injected with in vitro transcribed GluR6 cRNA
T1 sequence (Q13002 32-908): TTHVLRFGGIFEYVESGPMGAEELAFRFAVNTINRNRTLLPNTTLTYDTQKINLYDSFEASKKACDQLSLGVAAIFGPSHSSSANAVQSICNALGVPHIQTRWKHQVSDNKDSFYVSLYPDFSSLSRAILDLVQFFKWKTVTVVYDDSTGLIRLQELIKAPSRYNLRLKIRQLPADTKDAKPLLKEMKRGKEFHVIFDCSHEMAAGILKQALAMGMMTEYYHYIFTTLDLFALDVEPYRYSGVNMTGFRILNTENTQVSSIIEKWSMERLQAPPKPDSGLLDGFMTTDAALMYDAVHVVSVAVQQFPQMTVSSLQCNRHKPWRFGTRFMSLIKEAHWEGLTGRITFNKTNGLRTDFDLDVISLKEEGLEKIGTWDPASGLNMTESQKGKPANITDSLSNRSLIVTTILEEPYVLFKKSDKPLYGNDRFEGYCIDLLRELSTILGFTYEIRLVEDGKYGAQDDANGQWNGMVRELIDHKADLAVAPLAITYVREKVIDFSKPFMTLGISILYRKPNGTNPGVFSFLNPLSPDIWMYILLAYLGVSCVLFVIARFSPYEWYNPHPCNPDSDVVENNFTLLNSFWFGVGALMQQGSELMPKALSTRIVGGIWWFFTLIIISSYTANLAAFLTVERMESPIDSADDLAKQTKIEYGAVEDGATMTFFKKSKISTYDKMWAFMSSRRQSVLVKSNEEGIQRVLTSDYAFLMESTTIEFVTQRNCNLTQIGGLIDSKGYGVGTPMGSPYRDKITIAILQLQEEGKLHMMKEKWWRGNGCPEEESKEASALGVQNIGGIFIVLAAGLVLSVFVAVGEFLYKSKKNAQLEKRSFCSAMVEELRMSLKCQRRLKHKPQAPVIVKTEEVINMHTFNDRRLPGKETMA
Description: All measurements were performed under Vh of about −100 mV.
About 3 days to about 5 days after RNA injection, electrophysiological recordings were carried out using an Axoclamp-2A voltage clamp amplifier (Axon Instruments, Inc.). Experiments were performed in two-electrode voltage clamp mode using two intracellular microelectrodes of about 1 to about 3 mega-ohm resistance filled with a solution of about 3M KCl.
Oocytes were usually clamped at a holding potential of about −60 mV and stepped to about −100 mV during agent application.

Compound	Effect on responses to kainate [1]	Effect on Emax of kainate dose-response curve [2]	Effect on maximal response to kainate [3]
N[C@]1(C(=O)O)CC[C@H](C(=O)O)C1 [tACPD]	can inhibit responses to kainate	–	–
pregnenolone sulfate	–	decrease in Emax	decrease the maximal response to kainate
